Source: US4180655A, “Nitrosourea derivatives” (Suami; Tetsuo, priority 1974, dated 1979)

Legend:
Leukemia L1210 cells = experiment: Chemotherapeutic effect of nitrosourea derivatives on leukemia L1210 in mice; assay type: in vivo, mice (BDF1/BDF)
Excerpt: Chemotherapeutic effect of a variety of the nitrosourea derivatives of the formula I according to this invention on leukemia L1210 in mice were investigated by the following method and materials.
A--BDF1 mice (about 6 week-aged; body weight: 22±1 g); each experimental group was composed of 2 male mice.
B--BDF1 mice (about 7 week-aged; body weight: 21±2 g); each experimental group was composed of 3 male mice.
C--BDF mice (about 7 week-aged; body weight: 22±2 g); each experimental group was composed of 2 male mice.
D--BDF mice (about 6 week-aged; body weight: 21±2 g); each experimental group was composed of 3 male mice.
E--BDF1 mice (about six week-aged; body weight 20±1 g); each experimental group was composed of 3 female mice.
F--BDF1 mice (about six week-aged; body weight 21±1 g); each experimental group was composed of 3 male mice.
A--Leukemia L1210 cells (2.1×10^6 cells/ 0.05 ml/mouse) were intraperitoneally inoculated.
B--Leukemia L1210 cells (1.9×10^6 cells/0.05 ml/mouse) were intraperitoneally inoculated.
C--Leukemia L1210 cells (1.2×10^6 cells/0.05 ml/mouse) were intraperitoneally inoculated.
A--The test compound was dissolved in a physiological saline solution and administered intraperitoneally at a volume of 0.1 ml/mouse. The administration was made at once/day, from 24 hours after i.p. inoculation of L1210 cells, for 3 days. The effect of test compound was assessed by mean survival days of mice, percent increase in life-span, anatomical findings involving the volume of ascites.
B--The same as that used in A except that the drug administration was continued for 5 days.
C--The same as that used in A except that the test compound was suspended in 0.5% CMC solution and that the drug administration was continued for 5 days.
D--The same as that used in A except that the test compound was dissolved in distilled water for injection purposes.
The percentage increase in life-span (ILS) was calculated as follows:
Percentage increase in life-span (ILS)=T-C/C×100
T: The mean survival days of the treated animals.
C: The mean survival days of the untreated control.

[1] = LD50 value / toxicity in the intraperitoneal administration to BDF1 mice; details: mouse, in vivo, ip
Excerpt: The new nitrosourea derivatives according to this invention are further characterized by their low toxicity, thus satisfying their practical application for treating leukemia and tumor diseases.

[2] = 0.2 mg/kg i.p. once/day for 3 days (procedure A, saline)
[3] = 0.5 mg/kg i.p. once/day for 3 days (procedure A, saline)
[4] = 1 mg/kg i.p. once/day for 3 days (procedure A, saline)
[5] = 2 mg/kg i.p. once/day for 3 days (procedure A, saline)
[6] = 4 mg/kg i.p. once/day for 3 days (procedure A, saline)
[7] = 5 mg/kg i.p. once/day for 3 days (procedure A, saline)
[8] = 6.25 mg/kg i.p. once/day for 3 days (procedure A, saline)
[9] = 8 mg/kg i.p. once/day for 3 days (procedure A, saline)
[10] = 10 mg/kg i.p. once/day for 3 days (procedure A, saline)

O=NN(CCCl)C(=O)N[C@@H]1O[C@H](CO)[C@@H](O)[C@H](O)[C@H]1O [Compound 1, 1-(2-chloroethyl)-3-(β-D-glucopyranosyl)-1-nitrosourea]
Survival days, Treated (mean) (Leukemia L1210 cells; [2]): 12.0 days
Volume of ascites, Treated (Leukemia L1210 cells; [2]): 4.2
Survival days, Treated (mean) (Leukemia L1210 cells; [3]): 12.5 days
Volume of ascites, Treated (Leukemia L1210 cells; [3]): 4.2
Survival days, Treated (mean) (Leukemia L1210 cells; [4]): 12.9 days
Volume of ascites, Treated (Leukemia L1210 cells; [4]): 5.0
Survival days, Treated (mean) (Leukemia L1210 cells; [5]): 15.3 days
Volume of ascites, Treated (Leukemia L1210 cells; [5]): 2.5
Survival days, Treated (mean) (Leukemia L1210 cells; [6]): 40.3 days
Volume of ascites, Treated (Leukemia L1210 cells; [6]): 0
Survival days, Treated (mean) (Leukemia L1210 cells; [7]): 15.3 days
Volume of ascites, Treated (Leukemia L1210 cells; [7]): 1.5
Survival days, Treated (mean) (Leukemia L1210 cells; [8]): > 40.1 days
Volume of ascites, Treated (Leukemia L1210 cells; [8]): 0
Survival days, Treated (mean) (Leukemia L1210 cells; [9]): 95.9 days
Volume of ascites, Treated (Leukemia L1210 cells; [9]): 0
Survival days, Treated (mean) (Leukemia L1210 cells; [10]): 95.9 days
Volume of ascites, Treated (Leukemia L1210 cells; [10]): 0
ILS at 0.2 mg/kg (Leukemia L1210 cells; Mus musculus, L1210, ip, 72 h, 0.2 mg/kg i.p. once/day for 3 days (procedure A, saline), read-out: Percentage increase in life-span (ILS)): 29%
ILS at 0.5 mg/kg (Leukemia L1210 cells; Mus musculus, L1210, ip, 72 h, 0.5 mg/kg i.p. once/day for 3 days (procedure A, saline), read-out: Percentage increase in life-span (ILS)): 34.4%
ILS at 1 mg/kg (Leukemia L1210 cells; Mus musculus, L1210, ip, 72 h, 1 mg/kg i.p. once/day for 3 days (procedure A, saline), read-out: Percentage increase in life-span (ILS)): 38.7%
ILS at 2 mg/kg (Leukemia L1210 cells; Mus musculus, L1210, ip, 72 h, 2 mg/kg i.p. once/day for 3 days (procedure A, saline), read-out: Percentage increase in life-span (ILS)): 64.5%
ILS at 4 mg/kg (Leukemia L1210 cells; Mus musculus, L1210, ip, 72 h, 4 mg/kg i.p. once/day for 3 days (procedure A, saline), read-out: Percentage increase in life-span (ILS)): 333%
ILS at 5 mg/kg (Leukemia L1210 cells; Mus musculus, L1210, ip, 72 h, 5 mg/kg i.p. once/day for 3 days (procedure A, saline), read-out: Percentage increase in life-span (ILS)): 64.5%
ILS at 6.25 mg/kg (Leukemia L1210 cells; Mus musculus, L1210, ip, 72 h, 6.25 mg/kg i.p. once/day for 3 days (procedure A, saline), read-out: Percentage increase in life-span (ILS)): > 331%
ILS at 8 mg/kg (Leukemia L1210 cells; Mus musculus, L1210, ip, 72 h, 8 mg/kg i.p. once/day for 3 days (procedure A, saline), read-out: Percentage increase in life-span (ILS)): 931%
ILS at 10 mg/kg (Leukemia L1210 cells; Mus musculus, L1210, ip, 72 h, 10 mg/kg i.p. once/day for 3 days (procedure A, saline), read-out: Percentage increase in life-span (ILS)): 931%
LD50 [1]: ~25 mg/kg
